This is an account of results in patent US20090247752A1, “GATIFLOXACIN-CONTAINING AQUEOUS LIQUID PREPARATION, ITS PRODUCTION AND METHOD FOR SUPPRESSING FORMATION OF PRECIPITATE DURING STORAGE AT LOWER TEMPERATURE AND AT THE TIME OF FREEZING AND THAWING OF THE AQUEOUS LIQUID PREPARATION” (Kyorin Pharmaceutical Co., Ltd., priority 2008, published 2009).

One may read the thermodynamic solubility as solubility found after equilibrating the solid with the medium.

The series in a line: Solubility test of Gatifloxacin (Test Example 1). The series is classed as physicochemical. The settings on record: for solubility thermodynamic at 3 h: pH 6.5, aqueous buffer, thermodynamic from solid, pH 6.5, stirred 3 hours at room temperature. As to the method:
According to the formulations shown in Table 1, a saturated solution of Gatifloxacin containing the given amount of each additive was prepared. The solution containing sodium dihydrogen phosphate, boric acid or malonic acid was adjusted to a pH of 6.5 with hydrochloric acid and sodium hydroxide, and then stirred for 3 hours at room temperature. The solution containing nicotinamide was adjusted to 6.0 with hydrochloric acid and sodium hydroxide, filled in glass ampoules and shaken for 2 days at room temperature. As a control, a saturated solution of Gatifloxacin containing no additive was prepared, its pH was adjusted to 6.5 with hydrochloric acid and sodium hydroxide, and stirred for 3 hours at room temperature. Each solution was filtered through a membrane filter (0.45 μm), and the filtrate (1 mL) was precisely measured and a diluent was added thereto to precisely make its volume up to 50 mL. The resultant solution (3 mL) was precisely measured, an internal standard solution (3 mL) was precisely added thereto, and a diluent was added thereto to precisely make its volume up to 20 mL to prepare a sample solution. The concentration of Gatifloxacin was measured in the sample solution (20 μL) under the following HPLC conditions. The solubility was converted in terms of Gatifloxacin 3/2 hydrate.
Detector: Ultraviolet absorptiometer (measurement wavelength: 280 nm) Column: Inertsil ODS-2 […], 4.6 mmφ×150 mm, GL Sciences Inc. Column temperature: 40° C. Mobile phase: acetonitrile (180 mL), water (810 mL) and triethylamine (10 mL) were mixed, and the pH was adjusted to 4.5 with phosphoric acid. Flow rate: 0.8 mL/min Injection amount: 20 μL Internal standard solution: a mobile phase solution of methyl p-aminobenzoate (1→10000) Diluent: Mixture of acetonitrile, water and phosphoric acid (200:800:0.8)

≈ marks a conversion by molar mass, not a printed value.

In the case of `COc1c(N2CCNC(C)C2)c(F)cc2c(=O)c(C(=O)O)cn(C3CC3)c12` (racemic) [Gatifloxacin, (±)-1-cyclopropyl-6-fluoro-1,4-dihydro-8-methoxy-7-(3-methyl-1-piperazinyl)-4-oxo-3-quinolinecarboxylic acid], the “Solubility of Gatifloxacin” value (nicotinamide 1 w/v %, pH 6.0, shaken 2 days at room temperature, in terms of 3/2 hydrate) is reported as 1.41 w/v %. Moreover, the solubility (thermodynamic) at 3 h (sodium dihydrogen phosphate dihydrate 0.5 w/v %, in terms of 3/2 hydrate) amounted to 7200 µg/mL (≈ 19.2 mM); the solubility (thermodynamic) at 3 h (sodium dihydrogen phosphate dihydrate 1 w/v %, in terms of 3/2 hydrate) came to 9100 µg/mL (≈ 24.2 mM); the thermodynamic solubility at 3 h (saturated solution containing boric acid 0.5 w/v %, boric acid 0.5 w/v %, in terms of 3/2 hydrate) is 5800 µg/mL (≈ 15.5 mM); the solubility (thermodynamic) at 3 h (saturated solution containing boric acid 1 w/v %, boric acid 1 w/v %, in terms of 3/2 hydrate) is around 6000 µg/mL (≈ 16 mM); the solubility (thermodynamic) at 3 h (saturated solution containing malonic acid 0.5 w/v %, malonic acid 0.5 w/v %, in terms of 3/2 hydrate) was found to be 9600 µg/mL (≈ 25.6 mM); the solubility (thermodynamic) at 3 h (saturated solution containing malonic acid 1 w/v %, malonic acid 1 w/v %, in terms of 3/2 hydrate) was 9300 µg/mL (≈ 24.8 mM). Further, the thermodynamic solubility at 3 h (saturated solution containing no additive (control), no additive (control), in terms of Gatifloxacin 3/2 hydrate) turned out to be 5300 µg/mL (≈ 14.1 mM).
